The test system of this experiment is human thrombi. In words: Ex vivo blood flow model: binding to human thrombi, incl. competition with cold compound. The conditions noted are these: ± SEM; for in vitro clot-to-blood ratio / Accumulation Thrombus: 3 minutes post-injection of 18F-labeled compound; for Accumulation Thrombus: without cold compound; for Thrombus competition: cold compound added with hot compound, final plasma concentration 2.8 μM, 3 minutes. The text has this:
The binding of compounds to thrombi was further investigated in an ex vivo blood flow model similar to that described in “Wakhloo, A. K. et al. Thrombus and stroke 2008, in vitro models 57-66” but modified with regard to thrombus development. Briefly, an open handmade tube-set consisting of tygon-tubes (Tygon R-1000, part N^O AAU00007: I.D. 3.2 mm, O.D. 6.4 mm, Saint Gobain Performance Plastics North America), intermediate tubes (Intrafix® Infusion set, B. Braun, Melsungen, Germany) an open reservoir (10 mL Combitip, Eppendorf) and a chamber made of a piece of polyethylene-Tube, ([…] Polyethylene Tubing, Clay Adams, PE160, length: 6.5 cm) containing a loop of a roughened thread (fishing line: Okuma UltraMax whitefish, diameter: 0.14 mm, length: 5 cm; sandpaper: CAMI Grit designation: 600, CP918a, VSM) was used for thrombus formation. The connection between the intermediate tube and the thrombus chamber was made by trimmed tips (epTIPS, 200 μL, Eppendorff, Hamburg/Germany). The Reservoir and the thrombus chamber were fixed by clamps and stands. A peristaltic-pump (Minipuls 3, Gilson, Middelton/USA) was used to pump the blood around thereby adjusting the flow in the middle of the thrombus chamber to 70-90 cm per second, which was monitored by ultrasound Doppler measurement (Vevo 770 High-Resolution In Vivo Micro-Imaging System, VisualSonics, TorontoOntario, Canada; Scanhead: RMV 704, 40 MHz). The volume of the entire tube-set was 7.5 or 15 mL.
For each experiment fresh blood was taken from a volunteer using 10 mL citrate-tubes (Sarstedt S-Monovette 02.1067.001, 10 mL, Citrate 3.13%) and immediately laid into the turning-device of an incubator at a temperature of 37° C. (Heraeus miniTherm CTT with integrated rotation- and turning device, turning speed: 19 rotations per minute, Heraeus Instruments GmbH, Hanau/Germany). As needed, two tubes were taken out of the turning-device and 15 mL were transferred to a 20 mL Syringe (Omnifix®, B. Braun, Melsungen/Germany) and gently mixed with 0.75 mL CaCl2-Solution before the peristaltic pump was started and the whole content of the syringe was transferred into the reservoir of the tube-set via a cell strainer (BD Falcon™ cell strain, 40 μm, BD, Franklin Lakes, N.J. USA). After 7 minutes 1 MBq or 0.5 MBq (15 mL or 7.5 mL) of the compound was added to the reservoir by means of a pipette, thereby mixing the content gently with the tip of the pipette. The blood was left circulating for another 3 minutes. Then, the pump was stopped, aliquots were taken from the blood and the thrombus together with the roughened thread was removed from the thrombus-chamber before both was weighted and measured in a gamma counter (Automatic Gamma Counter Wizard^2 3, Perkin Elmer). Then the thrombus together with the thread was incubated in Plasmin-solution (Plasmin from Human Plasma, Sigma Aldrich, stock-solution: 500 μg in 500 μL 150 μM Tris-buffer (pH 7.8), 20 μL stock-solution to 230 μL saline solution 0.9%) for 48 hours to separate the platelets from the thread and to determine the netto weight of the thrombus. Finally the activity of the compound in blood and thrombus as well as the ratio between both was determined (cpm/weight [mg]).
To verify the specificity of the compound, a competition experiment was conducted in which the cold compound was added to the reservoir together with the hot compound. The final plasma concentration of the cold compound was 2.8 μM.

With `N#Cc1cc(-c2cncc([C@H](CC(=O)O)NC(=O)[C@@H]3CCCN(C(=O)CCC4CCNCC4)C3)c2)ccc1[18F]` [Example 42, (3S)-3-[5-(3-Cyano-4-[^18F]fluorophenyl)pyridin-3-yl]-3-[({(3R)-1-[3-(piperidin-4-yl)propanoyl]piperidin-3-yl}carbonyl)amino]propanoic acid], the “in vitro clot-to-blood ratio” value is 58 ± 10 (n = 6), the “Accumulation Thrombus” value is 39 ± 5 (n = 6) 10^3 cpm/mg and the Thrombus competition was 5 ± 1 (n = 6) 10^3 cpm/mg.

Take `O=C(O)C[C@H](NC(=O)[C@@H]1CCCN(C(=O)CCC2CCNCC2)C1)c1cncc(CCc2ccc(OCC[18F])cc2)c1` [Example 46, (3S)-3-(5-{2-[4-(2-[^18F]Fluoroethoxy)phenyl]ethyl}pyridin-3-yl)-3-[({(3R)-1-[3-(piperidin-4-yl)propanoyl]piperidin-3-yl}carbonyl)amino]propanoic acid]: the “in vitro clot-to-blood ratio” value is recorded as 191 ± 30 (n = 4), the “Accumulation Thrombus” value was 285 ± 76 (n = 4) 10^3 cpm/mg and the Thrombus competition is listed as 17 ± 1 (n = 4) 10^3 cpm/mg.

In the case of `O=C(O)C[C@H](NC(=O)[C@@H]1CCCN(C(=O)CCC2CCNCC2)C1)c1cncc(CCc2cccc(OCC[18F])c2)c1` [Example 47, (3S)-3-(5-{2-[3-(2-[^18F]Fluoroethoxy)phenyl]ethyl}pyridin-3-yl)-3-[({(3R)-1-[3-(piperidin-4-yl)propanoyl]piperidin-3-yl}carbonyl)amino]propanoic acid], the “in vitro clot-to-blood ratio” value was 178 ± 48 (n = 4), the “Accumulation Thrombus” value is 258 ± 59 (n = 4) 10^3 cpm/mg and the Thrombus competition is 14 ± 2 (n = 3) 10^3 cpm/mg.

Take `O=C(O)C[C@H](NC(=O)[C@@H]1CCCN(C(=O)CCC2CCNCC2)C1)c1cccc(OCC[18F])c1` [Example 38, (3S)-3-[3-(2-[^18F]Fluoroethoxy)phenyl]-3-[({(3R)-1-[3-(piperidin-4-yl)propanoyl]piperidin-3-yl}carbonyl)amino]propanoic acid]: the “in vitro clot-to-blood ratio” value is 19 ± 1 (n = 9), the “Accumulation Thrombus” value is listed as 41 ± 3 (n = 5) 10^3 cpm/mg and the Thrombus competition is reported as 10 ± 1 (n = 5) 10^3 cpm/mg.

On to `O=C(O)C[C@H](NC(=O)[C@@H]1CCCN(C(=O)CCC2CCNCC2)C1)c1ccc(OCC[18F])cc1` [Example 39, (3S)-3-[4-(2-[^18F]Fluoroethoxy)phenyl]-3-[({(3R)-1-[3-(piperidin-4-yl)propanoyl]piperidin-3-yl}carbonyl)amino]propanoic acid], for which the “in vitro clot-to-blood ratio” value is recorded as 34 ± 4 (n = 4), the “Accumulation Thrombus” value is recorded as 86 ± 9 (n = 6) 10^3 cpm/mg and the Thrombus competition is on record as 12 ± 1 (n = 6) 10^3 cpm/mg.
